# pEC50: −log10 of the molar value.
# Tests used:
# [1] = MTT cell viability assay, THP-1 cells; type: cell-based; conditions: human, unstimulated THP-1 cells, read-out: THP-1 Cytotoxicity CC50
# Method: In order to assess the cytotoxicity of the compounds, an MTT cell viability assay was performed in either unstimulated THP-1 or HepG2 cells as follows. 5×10^4 THP-1 or 5×10^3 HepG2 cells were seeded into each well of a 96-well plate in 90 μL of media. Compounds were added to cells as described for the IL-10 assay and returned to the incubator for an additional 72 hours. Next, 25 μL of MTT solution (5 mg/mL in sterile PBS) was added to each well. Plates were incubated for 3 hours at 37° C., 5% CO2. Next, for THP-1 cells, 100 μl of MTT solubilization solution (40% Dimethylformamide, 2% glacial acetic acid, 16% sodium dodecyl sulfate) was then added to each well and plates were incubated at room temperature in the dark overnight. For HepG2 cells, media was aspirated, 50 μL of DMSO was added and plates were mixed briefly with an orbital plate shaker. Absorbance at 570 nm was measured using a Perkin-Elmer EnVision plate reader.
# Absorbance values were converted to percentage of vehicle-treated controls. Data was then analyzed using a non-linear regression (variable slope (four-parameter)) equation in GraphPad Prism 7.0.
# Table 2 provides THP-1 cytotoxicity assay CC50 values for example compounds. A indicates CC50>10 μM; B indicates CC50 between 1 and 10 μM (inclusive); C indicates CC50<1 μM. NT, not tested.
# [2] = system: IL-1β; test: IL-1β inhibition assay (ELISA/HTRF of culture supernatants); type: cell-based; conditions: Homo sapiens, PMA-differentiated THP-1 cells, tested 10 μM to 0.003 μM
# Method: Human monocyte-like THP-1 cells were grown in RPMI media supplemented with 10% FBS (growth media) at 37° C., 5% CO2. Cell cultures were passaged every three days and maintained at a density of 5×10^5 to 1×10^6 cells per mL.
# Compounds were prepared as 10 mM stock solutions in 100% DMSO. […] Each 200× dilution was then diluted 20-fold in growth media (step down dilution) to yield a 10× final assay concentration range. All compounds were tested over a final assay concentration range of 10 μM to 0.003 μM.
# The level of IL-10 in supernatants from PMA-differentiated THP-1 cells was determined by ELISA using either the R&D Systems Human IL-1 beta/IL-1F2 Quantikine ELISA or the cisbio HTRF human IL 1 beta kit. Manufacturer's protocols were followed without deviation.
# Background values were subtracted and resulting values were converted to percentage of vehicle-treated controls. Data was analyzed via GraphPad Prism 7.0 using a non-linear regression (variable slope (four-parameter)) equation.
# Table 2 provides IL-10 ELISA EC50 values for example compounds. A indicates EC50>10 μM; B indicates EC50 between 1 and 10 μM (inclusive); C indicates EC50<1 μM.
pEC50 [2],SMILES,CC50 at 72 h [1] [µM]
5.00 to 6.00,"CC(C)c1cccc(C(C)C)c1NC(=O)NS(=O)(=O)c1ccc(B(O)O)s1 [Example 5, (5-(N-((2,6-diisopropylphenyl)carbamoyl)sulfamoyl)thiophen-2-yl)boronic acid]",> 10
5.00 to 6.00,"O=C(Nc1c2c(cc3c1CCC3)CCC2)NS(=O)(=O)c1ccc(B(O)O)cc1 [Example 13, (4-(N-((1,2,3,5,6,7-hexahydro-s-indacen-4-yl)carbamoyl)sulfamoyl)phenyl)boronic acid]",> 10
5.00 to 6.00,"CC(C)c1cc(B2OC(C)(C)C(C)(C)O2)cc(C(C)C)c1NC(=O)NS(=O)(=O)c1ccn(C(C)C)n1 [Example 30, N-((2,6-diisopropyl-4-(4,4,5,5-tetramethyl-1,3,2-dioxaborolan-2-yl)phenyl)carbamoyl)-1-isopropyl-1H-pyrazole-3-sulfonamide]",> 10
< 5.00,"CC(C)n1cc(S(=O)(=O)NC(=O)Nc2cc(B(O)O)ccc2C(C)(C)C)cn1 [Example 23, (4-(tert-butyl)-3-(3-((1-isopropyl-1H-pyrazol-4-yl)sulfonyl)ureido)phenyl)boronic acid]",> 10
< 5.00,"COc1ccc(B(O)O)cc1S(=O)(=O)NC(=O)Nc1c(C(C)C)cccc1C(C)C [Example 8, (3-(N-((2,6-diisopropylphenyl)carbamoyl)sulfamoyl)-4-methoxyphenyl)boronic acid]",> 10
5.00 to 6.00,"O=C(Nc1c2c(cc3c1CCC3)CCC2)NS(=O)(=O)c1cccc(B(O)O)c1 [Example 1, (3-(N-((1,2,3,5,6,7-hexahydro-s-indacen-4-yl)carbamoyl)sulfamoyl)phenyl)boronic acid]",> 10
< 5.00,"CC(C)n1cc(S(=O)(=O)NC(=O)Nc2cc(B3OC(C)(C)C(C)(C)O3)ccc2C2CC2)cn1 [Example 20, N-((2-cyclopropyl-5-(4,4,5,5-tetramethyl-1,3,2-dioxaborolan-2-yl)phenyl)carbamoyl)-1-isopropyl-1H-pyrazole-4-sulfonamide]",> 10
< 5.00,"CC(C)n1cc(S(=O)(=O)NC(=O)Nc2cc(B3OC(C)(C)C(C)(C)O3)ccc2C(C)(C)C)cn1 [Example 22, N-((2-(tert-butyl)-5-(4,4,5,5-tetramethyl-1,3,2-dioxaborolan-2-yl)phenyl)carbamoyl)-1-isopropyl-1H-pyrazole-4-sulfonamide]",> 10
< 5.00,"CC(C)c1cc(B(O)O)ccc1NC(=O)NS(=O)(=O)c1cnn(C(C)C)c1 [Example 19, (3-isopropyl-4-(3-((1-isopropyl-1H-pyrazol-4-yl)sulfonyl)ureido)phenyl)boronic acid]",> 10

# Second part, the molecule before the results:
SMILES,pEC50 [2],CC50 at 72 h [1] [µM]
"C[N+]12CCO[B-]1(c1cccc(S(=O)(=O)NC(=O)Nc3c4c(cc5c3CCC5)CCC4)c1)OCC2 (centres unmarked) [Example 28, N-((1,2,3,5,6,7-hexahydro-s-indacen-4-yl)carbamoyl)-3-(4-methyltetrahydro-2H-414,814-[1,3,2]oxazaborolo[2,3-b][1,3,2]oxazaborol-8-yl)benzenesulfonamide]",> 6.00,> 10
"COC(=O)c1ccc(S(=O)(=O)NC(=O)Nc2c3c(cc4c2CCC4)CCC3)cc1B(O)O [Example 35, (5-(N-((1,2,3,5,6,7-hexahydro-s-indacen-4-yl)carbamoyl)sulfamoyl)-2-(methoxycarbonyl)phenyl)boronic acid]",< 5.00,> 10
"C[N+]12CC(=O)O[B-]1(c1ccc(S(=O)(=O)NC(=O)Nc3c4c(cc5c3CCC5)CCC4)cc1)OC(=O)C2 (centres unmarked) [Example 27, N-((1,2,3,5,6,7-hexahydro-s-indacen-4-yl)carbamoyl)-4-(4-methyl-2,6-dioxotetrahydro-2H-414,814-[1,3,2]oxazaborolo[2,3-b][1,3,2]oxazaborol-8-yl)benzenesulfonamide]",> 6.00,> 10
"COc1ccc(S(=O)(=O)NC(=O)Nc2c3c(cc4c2CCC4)CCC3)cc1CB(O)O [Example 39, (5-(N-((1,2,3,5,6,7-hexahydro-s-indacen-4-yl)carbamoyl)sulfamoyl)-2-methoxybenzyl)boronic acid]",5.00 to 6.00,> 10
"O=C(Nc1c2c(cc3c1CCC3)CCC2)NS(=O)(=O)c1ccc(B(O)O)s1 [Example 12, (5-(N-((1,2,3,5,6,7-hexahydro-s-indacen-4-yl)carbamoyl)sulfamoyl)thiophen-2-yl)boronic acid]",5.00 to 6.00,> 10
"O=C(Nc1c2c(cc3c1CCC3)CCC2)NS(=O)(=O)c1cc(F)cc2c1B(O)OC2 [Example 34, 5-fluoro-N-((1,2,3,5,6,7-hexahydro-s-indacen-4-yl)carbamoyl)-1-hydroxy-1,3-dihydrobenzo[c][1,2]oxaborole-7-sulfonamide]",5.00 to 6.00,> 10
"CC1(C)[C@@H]2C[C@H]3OB(c4cccc(S(=O)(=O)NC(=O)Nc5c6c(cc7c5CCC7)CCC6)c4)O[C@@]3(C)[C@H]1C2 [Example 2, N-((1,2,3,5,6,7-hexahydro-s-indacen-4-yl)carbamoyl)-3-((3aS,4S,6S,7aR)-3a,5,5-trimethylhexahydro-4,6-methanobenzo[d][1,3,2]dioxaborol-2-yl)benzenesulfonamide]",5.00 to 6.00,> 10
"O=C(Nc1c2c(cc3c1CCC3)CCC2)NS(=O)(=O)c1ccc(O)c(CCCB(O)O)c1 [Example 37, (3-(5-(N-((1,2,3,5,6,7-hexahydro-s-indacen-4-yl)carbamoyl)sulfamoyl)-2-hydroxyphenyl)propyl)boronic acid]",5.00 to 6.00,> 10
"O=C(Nc1c2c(cc3c1CCC3)CCC2)NS(=O)(=O)c1ccc2c(c1)B(O)OC2 [Example 17, N-((1,2,3,5,6,7-hexahydro-s-indacen-4-yl)carbamoyl)-1-hydroxy-1,3-dihydrobenzo[c][1,2]oxaborole-6-sulfonamide]",5.00 to 6.00,> 10
"CC1(C)[C@@H]2CC3OB(c4ccc(S(=O)(=O)NC(=O)Nc5c6c(cc7c5CCC7)CCC6)cc4)O[C@@]3(C)[C@H]1C2 (stereo partly drawn) [Example 14, N-((1,2,3,5,6,7-hexahydro-s-indacen-4-yl)carbamoyl)-4-((3aS,4S,6S)-3a,5,5-trimethylhexahydro-4,6-methanobenzo[d][1,3,2]dioxaborol-2-yl)benzenesulfonamide]",5.00 to 6.00,> 10
"CC1(C)OB(O)c2cc(S(=O)(=O)NC(=O)Nc3c4c(cc5c3CCC5)CCC4)ccc21 [Example 47, N-((1,2,3,5,6,7-hexahydro-s-indacen-4-yl)carbamoyl)-1-hydroxy-3,3-dimethyl-1,3-dihydrobenzo[c][1,2]oxaborole-6-sulfonamide]",5.00 to 6.00,> 10
"O=C(Nc1c2c(cc3c1CCC3)CCC2)NS(=O)(=O)c1ccc(O)c(CB(O)O)c1 [Example 38, (5-(N-((1,2,3,5,6,7-hexahydro-s-indacen-4-yl)carbamoyl)sulfamoyl)-2-hydroxybenzyl)boronic acid]",5.00 to 6.00,> 10
"O=C(Nc1c2c(cc3c1CCC3)CCC2)NS(=O)(=O)c1ccc2c(c1)COB2O [Example 29, N-((1,2,3,5,6,7-hexahydro-s-indacen-4-yl)carbamoyl)-1-hydroxy-1,3-dihydrobenzo[c][1,2]oxaborole-5-sulfonamide]",> 6.00,> 10
"Cc1c(B2OC(C)(C)C(C)(C)O2)cccc1S(=O)(=O)NC(=O)Nc1c2c(cc3c1CCC3)CCC2 [Example 16, N-((1,2,3,5,6,7-hexahydro-s-indacen-4-yl)carbamoyl)-2-methyl-3-(4,4,5,5-tetramethyl-1,3,2-dioxaborolan-2-yl)benzenesulfonamide]",5.00 to 6.00,> 10
"COc1ccc(S(=O)(=O)NC(=O)Nc2c3c(cc4c2CCC4)CCC3)cc1B(O)O [Example 43, (5-(N-((1,2,3,5,6,7-hexahydro-s-indacen-4-yl)carbamoyl)sulfamoyl)-2-methoxyphenyl)boronic acid]",5.00 to 6.00,> 10
"CC1(C)OB(CCCn2ccc(S(=O)(=O)NC(=O)Nc3c4c(cc5c3CCC5)CCC4)n2)OC1(C)C [Example 59, N-((1,2,3,5,6,7-hexahydro-s-indacen-4-yl)carbamoyl)-1-(3-(4,4,5,5-tetramethyl-1,3,2-dioxaborolan-2-yl)propyl)-1H-pyrazole-3-sulfonamide]",> 6.00,> 10
